US20150352075A1, “Treatment of Alzheimer's and Cognitive Impairment With Andrographolides” (INNOBIOSCIENCE, LLC, priority 2013, published 2015)

Legend:
[1] = tested on: APPswe/PS-1 double transgenic mice; test: Tau phosphorylation (PHF-1, AT8) by immunoblot and immunohistochemistry in treated mice; assay type: in vivo
[2] = tested on: APPswe/PS-1 double transgenic mice; test: LTP by TBS in hippocampal CA1 slices from treated transgenic mice; assay type: in vivo; conditions: slices from both sets (7- and 12-month-old) of treated APPswe/PS-1 mice
[3] = tested on: APPswe/PS-1 double transgenic mice; test: Immunoblot of synaptic proteins in hippocampus and cortex of treated mice; assay type: in vivo
[4] = tested on: Wnt/β-catenin pathway in hippocampal slices; test: Wnt pathway mechanism in hippocampal slices (sFRP, Dkk-1, Dvl-3 mobility shift, time course); assay type: cell-based, mice
Method: Slice preparation. […] Transverse slices (250-300 μm) from the dorsal hippocampus were cut under oxygen-saturated cold artificial cerebrospinal fluid using a Vibroslice microtome (VSL, World Precision Instruments, Inc WPI, Sarasota, Fla.). After obtained, slices were incubated in ACSF for at least than one hour at room temperature, in order to stabilize activity. In every moment during dissection, slicing and experimentation slices were oxygenated with 95% oxygen-5% carbon dioxide.
Briefly, tissues were homogenized in RIPA buffer (10 mM Tris-Cl, pH 7.4, EDTA 5 mM, 1% NP-40, 1% sodium deoxycholate, and 1% SDS) supplemented with a protease inhibitor mixture (1 mM PMSF, 2 μg/mL aprotinin, 1 μg/mL pepstatin and 10 μg/mL benzamidine) and phosphatase inhibitors (25 mMNaF, 100 mM Na3VO4, 1 mM EDTA and 30 μM Na4P207) using a Potter homogenizator and then passed sequentially through different caliber syringes. […] Protein concentration was determined using the BCA Protein Assay Kit (Pierce). Samples were resolved by […] 10% SDS-PAGE and transferred to a PVDF membrane. The reactions were followed by incubation with anti-mouse, anti-goat or anti-rabbit IgG peroxidase conjugated (Pierce, Rockford, Ill.) and developed using an ECL kit (Western Lightning Plus ECL, PerkinElmer).

## C=C1CC[C@@H]2C(C)(CO)C(O)CC[C@@]2(C)C1C/C=C1/C(=O)OCC1O (stereo in doubt) [ANDRO, 3-(2-(Decahydro-6-hydroxy-5-(hydroxymethyl)-5,8a-dimethyl-2-methylenenaphthyl)ethylidene)dihydro-4-hydroxyfuran-2(3H)-one]
[1]; 6 month-old APPswe/PS-1, circular area surrounding plaques
  number of AT8-positive neurons next to amyloid deposits: clear decrease in the number of AT8-positive neurons next to amyloid deposits
[1]; hippocampus
  total AT8-positive cells outside the circular area around the plaques: decrease in the number of these cells
[1]; hippocampus of 6 month-old APPswe/PS-1 mice, vs untreated
  PHF-1- and AT8-positive tau levels (immunoblot): reduction in PHF-1- and AT8-positive tau levels
[2]
  LTP induction in CA3-CA1 transmission: have the property to induce a LTP that is maintained for 1 h
[3]; mature Tg mice
  PSD-95 and GluA2 levels: increase of PSD-95 and GluA2 levels
[3]; young APPswe/PS-1 mice
  total levels of pre-synaptic proteins SYP and VAMP: unaltered
[3]; young APPswe/PS-1 mice, hippocampus and cortex
  levels of post-synaptic proteins (Shank, GluN2B, GluA2, PSD-95): significantly recovers the post-synaptic proteins
[4]; compared to Wnt-3a treatment
  speed of increase in GSK3β pSer-9 and decrease in pTyr-216: faster
[4]; hippocampal slices, 1 h, western blot
  mobility shift (phosphorylation) of Dvl-3: does not induce a mobility shift of Dvl-3
[4]; slices from 2 month-old wild-type mice, 5 μM ANDRO, Wnt3a conditioned medium or 10 μM 6-B10
  time at which total levels of β-catenin increased: 15 min
